ChEMBL document CHEMBL1201862, “PubChem BioAssay data set” (2004)
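Following 48 hours of exposure in 96-well plates, responses at five concentrations were used to interpolate endpoints linearly. Abbreviation: GI50, concentration required for 50% inhibition of growth.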 Calls of active or inactive are those of the source. Cut-off read from the data, not from the text of the source: active = GI50 up to about 1.1 µM and inactive = higher.

Key:
Assay in all cases: NCI tumour cell line growth inhibition, 48 h
786-0 = system: 786-0
A498 = system: A498
A549 = system: A549
ACHN = system: ACHN
BT-549 = system: BT-549
CAKI-1 = system: CAKI-1
CCRF-CEM = system: CCRF-CEM
COLO 205 = system: COLO 205
DU-145 = system: DU-145
EKVX = system: EKVX
HCC 2998 = system: HCC 2998
HCT-116 = system: HCT-116
HCT-15 = system: HCT-15
HOP-62 = system: HOP-62
HT-29 = system: HT-29
Hs-578T = system: Hs-578T
K562 = system: K562
KM12 = system: KM12
M14 = system: M14
MCF7 = system: MCF7
MDA-MB-231 = system: MDA-MB-231
MDA-MB-435 = system: MDA-MB-435
MOLT-4 = system: MOLT-4
Malme-3M = system: Malme-3M
NCI-H226 = system: NCI-H226
NCI-H23 = system: NCI-H23
NCI-H460 = system: NCI-H460
NCI/ADR-RES = system: NCI/ADR-RES
OVCAR-3 = system: OVCAR-3
OVCAR-4 = system: OVCAR-4
OVCAR-5 = system: OVCAR-5
OVCAR-8 = system: OVCAR-8
PC-3 = system: PC-3
RPMI-8226 = system: RPMI-8226
SF-268 = system: SF-268
SF-295 = system: SF-295
SF-539 = system: SF-539
SK-MEL-28 = system: SK-MEL-28
SK-MEL-2 = system: SK-MEL-2
SK-OV-3 = system: SK-OV-3
SN12C = system: SN12C
SNB-19 = system: SNB-19
SNB-75 = system: SNB-75
SW-620 = system: SW-620
T47D = system: T47D
U-251 = system: U-251
UACC-257 = system: UACC-257
UACC-62 = system: UACC-62
UO-31 = system: UO-31

O=[N+]([O-])C(/C(Cl)=C(/Cl)N1CCOCC1)=C1\Nc2ccccc2O1
GI50 (786-0): > 100 µM (inactive)
GI50 (A498): > 100 µM (inactive)
GI50 (A549): > 100 µM (inactive)
GI50 (ACHN): > 100 µM (inactive)
GI50 (BT-549): > 100 µM (inactive)
GI50 (CAKI-1): > 100 µM (inactive)
GI50 (CCRF-CEM): > 100 µM (inactive)
GI50 (COLO 205): > 100 µM (inactive)
GI50 (DU-145): 70.3 µM (inactive)
GI50 (EKVX): > 100 µM (inactive)
GI50 (HCC 2998): 16.1 µM (inactive)
GI50 (HCT-116): > 100 µM (inactive)
GI50 (HCT-15): > 100 µM
GI50 (HOP-62): > 100 µM (inactive)
GI50 (HT-29): > 100 µM (inactive)
GI50 (Hs-578T): > 100 µM (inactive)
GI50 (K562): > 100 µM (inactive)
GI50 (KM12): > 100 µM (inactive)
GI50 (M14): > 100 µM (inactive)
GI50 (MCF7): > 100 µM (inactive)
GI50 (MDA-MB-231): > 100 µM (inactive)
GI50 (MDA-MB-435): > 100 µM (inactive)
GI50 (MOLT-4): > 100 µM (inactive)
GI50 (Malme-3M): > 100 µM (inactive)
GI50 (NCI-H226): > 100 µM (inactive)
GI50 (NCI-H23): > 100 µM (inactive)
GI50 (NCI-H460): 12.7 µM (inactive)
GI50 (NCI/ADR-RES): 83.2 µM (inactive)
GI50 (OVCAR-3): 24.4 µM (inactive)
GI50 (OVCAR-4): > 100 µM (inactive)
GI50 (OVCAR-5): > 100 µM (inactive)
GI50 (OVCAR-8): > 100 µM (inactive)
GI50 (PC-3): > 100 µM (inactive)
GI50 (RPMI-8226): > 100 µM (inactive)
GI50 (SF-268): 28.9 µM (inactive)
GI50 (SF-295): > 100 µM (inactive)
GI50 (SF-539): > 100 µM (inactive)
GI50 (SK-MEL-28): > 100 µM (inactive)
GI50 (SK-MEL-2): > 100 µM (inactive)
GI50 (SK-OV-3): > 100 µM (inactive)
GI50 (SN12C): > 100 µM (inactive)
GI50 (SNB-19): > 100 µM (inactive)
GI50 (SNB-75): > 100 µM (inactive)
GI50 (SW-620): > 100 µM (inactive)
GI50 (T47D): > 100 µM (inactive)
GI50 (U-251): 86.9 µM (inactive)
GI50 (UACC-257): 15 µM (inactive)
GI50 (UACC-62): 96.2 µM (inactive)
GI50 (UO-31): > 100 µM (inactive)
